Assay results published in ChEMBL document CHEMBL5291721, “A preclinical secondary pharmacology resource illuminates target-adverse drug reaction associations of marketed drugs” (Nat Commun, 2023).

What was measured:
[1] = molecular target: Sodium channel protein type 5 subunit alpha (Homo sapiens, UniProt Q14524); format: functional, cell-based
[2] = molecular target: T1, Muscarinic acetylcholine receptor M1 (Homo sapiens, UniProt P11229); format: functional, cell-based
T1 sequence (P11229 whole entry): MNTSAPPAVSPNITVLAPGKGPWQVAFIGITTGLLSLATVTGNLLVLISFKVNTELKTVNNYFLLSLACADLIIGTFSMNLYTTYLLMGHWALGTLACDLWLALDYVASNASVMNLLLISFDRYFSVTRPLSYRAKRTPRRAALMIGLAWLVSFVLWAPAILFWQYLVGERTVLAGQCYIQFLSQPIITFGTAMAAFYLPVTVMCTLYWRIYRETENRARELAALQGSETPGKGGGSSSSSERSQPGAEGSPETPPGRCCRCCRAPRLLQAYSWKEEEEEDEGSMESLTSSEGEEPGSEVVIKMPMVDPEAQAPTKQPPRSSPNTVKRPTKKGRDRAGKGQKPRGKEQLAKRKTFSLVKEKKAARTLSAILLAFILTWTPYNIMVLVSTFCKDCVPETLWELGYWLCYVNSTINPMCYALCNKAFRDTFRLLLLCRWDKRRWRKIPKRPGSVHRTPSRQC

[3] = molecular target: T1, Muscarinic acetylcholine receptor M1; format: functional, cell-based; remark: listed apart in the source
[4] = molecular target: T2, Muscarinic acetylcholine receptor M5 (Homo sapiens, UniProt P08912)
T2 sequence (P08912 whole entry): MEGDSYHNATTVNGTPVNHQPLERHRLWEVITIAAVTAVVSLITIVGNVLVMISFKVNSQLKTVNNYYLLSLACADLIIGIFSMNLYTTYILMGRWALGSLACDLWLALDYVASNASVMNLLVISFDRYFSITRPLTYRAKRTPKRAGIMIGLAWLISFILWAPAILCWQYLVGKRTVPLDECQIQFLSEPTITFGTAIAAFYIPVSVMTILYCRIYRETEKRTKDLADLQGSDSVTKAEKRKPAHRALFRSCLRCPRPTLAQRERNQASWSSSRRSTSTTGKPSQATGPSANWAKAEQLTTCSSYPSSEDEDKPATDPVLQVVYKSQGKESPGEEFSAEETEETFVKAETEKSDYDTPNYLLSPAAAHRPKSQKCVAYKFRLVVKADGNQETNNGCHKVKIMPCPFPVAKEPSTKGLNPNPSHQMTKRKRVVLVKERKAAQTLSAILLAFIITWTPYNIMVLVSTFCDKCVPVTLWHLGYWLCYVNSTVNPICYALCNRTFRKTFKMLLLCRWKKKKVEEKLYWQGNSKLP
Note: assay procedure not described here.

Sodium channel protein type 5 subunit alpha, sequence (Q14524 whole entry): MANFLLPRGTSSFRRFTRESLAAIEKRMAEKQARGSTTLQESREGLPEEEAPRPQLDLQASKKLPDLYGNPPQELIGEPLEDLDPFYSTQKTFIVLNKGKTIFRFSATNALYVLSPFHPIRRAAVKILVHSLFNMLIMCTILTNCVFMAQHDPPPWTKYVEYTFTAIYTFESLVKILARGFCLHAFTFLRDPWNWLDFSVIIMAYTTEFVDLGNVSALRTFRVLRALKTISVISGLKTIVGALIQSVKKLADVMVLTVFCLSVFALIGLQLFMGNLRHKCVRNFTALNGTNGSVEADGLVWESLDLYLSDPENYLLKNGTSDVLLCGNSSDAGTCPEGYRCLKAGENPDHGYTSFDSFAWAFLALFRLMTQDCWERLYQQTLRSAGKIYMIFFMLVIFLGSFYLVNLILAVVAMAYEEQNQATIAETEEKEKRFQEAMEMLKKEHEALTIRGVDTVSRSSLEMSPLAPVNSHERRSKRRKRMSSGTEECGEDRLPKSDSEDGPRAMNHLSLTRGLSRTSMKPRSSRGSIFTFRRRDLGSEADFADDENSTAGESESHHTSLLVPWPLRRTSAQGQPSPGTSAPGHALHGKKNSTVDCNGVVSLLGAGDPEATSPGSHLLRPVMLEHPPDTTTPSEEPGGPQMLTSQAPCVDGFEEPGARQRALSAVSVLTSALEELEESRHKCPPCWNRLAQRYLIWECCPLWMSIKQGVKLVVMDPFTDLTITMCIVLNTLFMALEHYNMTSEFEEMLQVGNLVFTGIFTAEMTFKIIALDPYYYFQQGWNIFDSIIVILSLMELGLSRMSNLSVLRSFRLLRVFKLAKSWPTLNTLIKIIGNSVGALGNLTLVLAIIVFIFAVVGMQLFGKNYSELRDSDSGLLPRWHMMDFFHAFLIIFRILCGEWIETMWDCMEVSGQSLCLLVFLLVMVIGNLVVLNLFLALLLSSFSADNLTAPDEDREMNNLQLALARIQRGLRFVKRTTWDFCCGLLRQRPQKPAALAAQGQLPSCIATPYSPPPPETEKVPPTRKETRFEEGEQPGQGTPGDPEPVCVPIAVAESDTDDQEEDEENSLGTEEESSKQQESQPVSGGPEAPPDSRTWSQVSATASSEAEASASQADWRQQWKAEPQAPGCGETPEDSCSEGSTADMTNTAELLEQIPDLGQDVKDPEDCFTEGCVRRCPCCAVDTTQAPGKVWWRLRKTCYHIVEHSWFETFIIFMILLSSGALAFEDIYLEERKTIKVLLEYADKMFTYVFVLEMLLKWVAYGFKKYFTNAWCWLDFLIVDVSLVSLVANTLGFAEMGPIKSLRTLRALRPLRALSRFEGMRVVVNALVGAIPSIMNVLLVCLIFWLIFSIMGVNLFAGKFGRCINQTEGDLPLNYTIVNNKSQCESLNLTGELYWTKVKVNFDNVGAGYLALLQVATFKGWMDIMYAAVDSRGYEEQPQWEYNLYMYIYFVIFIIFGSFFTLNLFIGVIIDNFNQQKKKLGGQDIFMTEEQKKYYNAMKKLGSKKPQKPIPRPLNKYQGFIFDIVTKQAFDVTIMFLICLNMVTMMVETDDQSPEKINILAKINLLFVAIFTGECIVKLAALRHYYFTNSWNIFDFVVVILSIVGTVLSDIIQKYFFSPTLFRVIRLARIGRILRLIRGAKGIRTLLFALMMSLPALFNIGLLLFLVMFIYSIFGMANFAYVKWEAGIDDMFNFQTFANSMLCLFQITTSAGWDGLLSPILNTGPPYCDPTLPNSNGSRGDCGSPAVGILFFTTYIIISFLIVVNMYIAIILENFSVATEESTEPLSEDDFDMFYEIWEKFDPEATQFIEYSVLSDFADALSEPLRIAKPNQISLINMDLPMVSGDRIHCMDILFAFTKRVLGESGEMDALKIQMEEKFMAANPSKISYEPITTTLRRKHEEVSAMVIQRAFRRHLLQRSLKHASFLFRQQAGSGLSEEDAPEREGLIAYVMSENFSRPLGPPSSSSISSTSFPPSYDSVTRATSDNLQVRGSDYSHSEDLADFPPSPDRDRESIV

Structure (SMILES): CC[C@@H](C(N)=O)N1CCCC1=O
- AC50 [1]: > 50 µM

Structure (SMILES): NC1CCN(c2c(F)cc3c(=O)c(C(=O)O)cn(C4CC4)c3c2Cl)C1 (centres undefined) [CLINAFLOXACIN]
- AC50 [2]: > 300 µM
- AC50 [3]: 40 µM

Structure (SMILES): CCOc1ccccc1OCC1CNCCO1 (centres undefined) [VILOXAZINE]
- AC50 [4]: > 10 µM
